# Laboratory results from patent publication US7605163B2, “Benzoyl-piperazine derivatives” (Hoffmann-La Roche Inc., priority 2003, dated 2009).
# Target: T1, mGlyT-1b (Mus musculus, UniProt P28571)
# T1 construct: host or cells: Flp-in-CHO cells
# T1 sequence (P28571 1-651 isoform P28571-2): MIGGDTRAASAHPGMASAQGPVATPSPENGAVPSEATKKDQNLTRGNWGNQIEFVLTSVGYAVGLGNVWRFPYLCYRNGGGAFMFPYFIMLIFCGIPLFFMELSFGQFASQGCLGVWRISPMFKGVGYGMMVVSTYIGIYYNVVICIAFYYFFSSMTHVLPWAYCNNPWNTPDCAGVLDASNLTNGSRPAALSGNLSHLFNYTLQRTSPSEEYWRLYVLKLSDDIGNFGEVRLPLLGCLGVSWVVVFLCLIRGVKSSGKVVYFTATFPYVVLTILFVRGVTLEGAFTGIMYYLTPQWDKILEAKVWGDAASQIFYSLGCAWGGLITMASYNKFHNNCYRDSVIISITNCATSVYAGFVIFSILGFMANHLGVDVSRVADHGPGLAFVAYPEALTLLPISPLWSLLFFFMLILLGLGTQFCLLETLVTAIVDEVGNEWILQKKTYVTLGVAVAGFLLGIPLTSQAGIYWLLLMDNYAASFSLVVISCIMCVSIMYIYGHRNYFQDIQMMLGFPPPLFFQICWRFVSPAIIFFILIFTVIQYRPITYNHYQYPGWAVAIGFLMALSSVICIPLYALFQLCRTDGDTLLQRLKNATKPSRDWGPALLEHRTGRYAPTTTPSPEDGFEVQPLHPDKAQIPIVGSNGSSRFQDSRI
# Experiment: Glycine Uptake Inhibition Assay (mGlyT-1b)
# Type: cell-based
# Conditions: [3H]-glycine uptake inhibition at GlyT-1, Flp-in-CHO cells transfected with mGlyT-1b cDNA
# Protocol: DMEM complete medium: Nutrient mixture F-12 (Gibco Life-technologies), fetal bovine serum (FBS) 5%, (Gibco life technologies), Penicillin/Streptomycin 1% (Gibco life technologies), Hygromycin 0.6 mg/ml (Gibco life technologies), Glutamine 1 mM Gibco life technologies)
# Uptake buffer (UB): 150 mM NaCl, 10 mM Hepes-Tris, pH 7.4, 1 mM CaCl2, 2.5 mM KCl, 2.5 mM MgSO4, 10 mM (+) D-glucose. Flp-in™-CHO (Invitrogen Cat n^o R758-07) cells stably transfected with mGlyT1b cDNA.
# Glycine Uptake Inhibition Assay (mGlyT-1b)
# On day 1 mammalian cells, (Flp-in™-CHO), transfected with mGlyT-1b cDNA, were plated at the density of 40,000 cells/well in complete F-12 medium, without hygromycin in 96-well culture plates. On day 2, the medium was aspirated, and the cells were washed twice with uptake buffer (UB). The cells were then incubated for 20 min at 22° C. with either (i) no potential competitor, (ii) 10 mM non-radioactive glycine, (iii) a concentration of a potential inhibitor. A range of concentrations of the potential inhibitor was used to generate data for calculating the concentration of inhibitor resulting in 50% of the effect (e.g. IC50, the concentration of the competitor inhibiting glycine uptake of 50%).
# A solution was then immediately added containing [^3H]-glycine 60 nM (11-16 Ci/mmol) and 25 μM non-radioactive glycine. The plates were incubated with gentle shaking, and the reaction was stopped by aspiration of the mixture and washing (three times) with ice-cold UB. The cells were lysed with scintillation liquid, shaken 3 hours and the radioactivity in the cells counted using a scintillation counter.
row,Compound,IC50
1,"CCCCOc1ccc([N+](=O)[O-])cc1C(=O)N1CCN(c2ccc(C(F)(F)F)cc2)CC1 [Example 66, (2-Butoxy-5-nitro-phenyl)-[4-(4-trifluoromethyl-phenyl)-piperazin-1-yl]-methanone]",32 nM
2,"CC(C)COc1ccc([N+](=O)[O-])cc1C(=O)N1CCN(c2ccc(C(F)(F)F)cc2)CC1 [Example 70, (2-Isobutoxy-5-nitro-phenyl)-[4-(4-trifluoromethyl-phenyl)-piperazin-1-yl]-methanone]",8 nM
3,"O=C(c1cc([N+](=O)[O-])ccc1OC1CCC1)N1CCN(c2ccc(C(F)(F)F)cc2)CC1 [Example 74, (2-Cyclobutoxy-5-nitro-phenyl)-[4-(4-trifluoromethyl-phenyl)-piperazin-1-yl]-methanone]",16 nM
4,"O=C(c1cc([N+](=O)[O-])ccc1OCC(F)(F)C(F)F)N1CCN(c2ccc(C(F)(F)F)cc2)CC1 [Example 80, [5-Nitro-2-(2,2,3,3-tetrafluoro-propoxy)-phenyl]-[4-(4-trifluoromethyl-phenyl)-piperazin-1-yl]-methanone]",29 nM
5,"O=C(c1cc([N+](=O)[O-])ccc1OCC(F)(F)F)N1CCN(c2ccc(C(F)(F)F)cc2)CC1 [Example 84, [5-Nitro-2-(2,2,2-trifluoro-ethoxy)-phenyl]-[4-(4-trifluoromethyl-phenyl)-piperazin-1-yl]-methanone]",40 nM
6,"O=C(c1cc([N+](=O)[O-])ccc1OCCCl)N1CCN(c2ccc(C(F)(F)F)cc2)CC1 [Example 92, [2-(2-Chloro-ethoxy)-5-nitro-phenyl]-[4-(4-trifluoromethyl-phenyl)-piperazin-1-yl]-methanone]",50 nM
7,"O=C(c1cc([N+](=O)[O-])ccc1OC1CCOCC1)N1CCN(c2ccc(C(F)(F)F)cc2)CC1 [Example 95, [5-Nitro-2-(tetrahydro-pyran-4-yloxy)-phenyl]-[4-(4-trifluoromethyl-phenyl)-piperazin-1-yl]-methanone]",35 nM
8,"CC(C)(Oc1ccc(S(C)(=O)=O)cc1C(=O)N1CCN(c2ccc(C(F)(F)F)cn2)CC1)C(F)(F)F [Example 105, [5-Methanesulfonyl-2-(2,2,2-trifluoro-1,1-dimethyl-ethoxy)-phenyl]-[4-(5-trifluoromethyl-pyridin-2-yl)-piperazin-1-yl]-methanone]",39 nM
9,"CC(C)Oc1ccc(S(C)(=O)=O)cc1C(=O)N1CCN(c2ccc(S(=O)(=O)C(F)(F)F)cc2)CC1 [Example 328, (2-Isopropoxy-5-methanesulfonyl-phenyl)-[4-(4-trifluoromethanesulfonyl-phenyl)-piperazin-1-yl]-methanone]",32 nM
10,"CC(C)COc1ccc(S(C)(=O)=O)cc1C(=O)N1CCN(c2ccc(S(=O)(=O)C(F)(F)F)cc2)CC1 [Example 330, (2-Isobutoxy-5-methanesulfonyl-phenyl)-[4-(4-trifluoromethanesulfonyl-phenyl)-piperazin-1-yl]-methanone]",18 nM
11,CNS(=O)(=O)c1ccc(OC(F)(F)F)c(C(=O)N2CCN(c3ccc(C#N)c(F)c3)CC2)c1 [compound 111],35 nM
12,CS(=O)(=O)c1ccc(OCCC(F)(F)F)c(C(=O)N2CCN(c3ccc(C(F)(F)F)cc3F)CC2)c1 [compound 117],44 nM
13,CS(=O)(=O)c1ccc(OC2CCCC2)c(C(=O)N2CCN(c3ccc(C#N)c(F)c3F)CC2)c1 [compound 131],30 nM
14,CC(C)COc1ccc(S(C)(=O)=O)cc1C(=O)N1CCN(c2cc(F)c(C#N)cc2F)CC1 [compound 132],38 nM
15,CS(=O)(=O)c1ccc(OC2CCCC2)c(C(=O)N2CCN(c3cc(F)c(C#N)cc3F)CC2)c1 [compound 135],41 nM
16,CC(=O)c1ccc(N2CCN(C(=O)c3cc(S(C)(=O)=O)ccc3OCC3CCC3)CC2)c(F)c1 [compound 142],34 nM
17,CS(=O)(=O)c1ccc(OCC2CCC2)c(C(=O)N2CCN(c3ccc(C(F)(F)F)cc3C#N)CC2)c1 [compound 144],45 nM
18,CS(=O)(=O)c1ccc(OCC2CCC2)c(C(=O)N2CCN(c3c(F)cc(C#N)cc3F)CC2)c1 [compound 147],31 nM
19,CS(=O)(=O)c1ccc(OCC2CCC2)c(C(=O)N2CCN(c3cc(F)c(C#N)c(F)c3)CC2)c1 [compound 148],36 nM
20,CS(=O)(=O)c1ccc(OCC2CC2)c(C(=O)N2CCN(c3c(F)cc(C#N)cc3F)CC2)c1 [compound 165],470 nM

# More lines, in order of falling IC50, values ahead:
row,IC50,Compound
1,27 nM,CS(=O)(=O)c1ccc(OCC2CCC2)c(C(=O)N2CCN(c3ccc(C#N)cc3)CC2)c1 [compound 136]
2,27 nM,CS(=O)(=O)c1ccc(OCC2CCC2)c(C(=O)N2CCN(c3ccc(C#N)c(F)c3)CC2)c1 [compound 137]
3,26 nM,"CCCOc1ccc([N+](=O)[O-])cc1C(=O)N1CCN(c2ccc(C(F)(F)F)cc2)CC1 [Example 72, (5-Nitro-2-propoxy-phenyl)-[4-(4-trifluoromethyl-phenyl)-piperazin-1-yl]-methanone]"
4,24 nM,CS(=O)(=O)c1ccc(OCCC(F)(F)F)c(C(=O)N2CCN(c3ccc(C#N)cc3F)CC2)c1 [compound 112]
5,24 nM,CC(=O)c1ccc(N2CCN(C(=O)c3cc(S(C)(=O)=O)ccc3OCCC(F)(F)F)CC2)c(F)c1 [compound 118]
6,24 nM,CS(=O)(=O)c1ccc(OCC2CCC2)c(C(=O)N2CCN(c3ccc(C(F)(F)F)cc3)CC2)c1 [compound 139]
7,21 nM,CC(C)Oc1ccc(S(C)(=O)=O)cc1C(=O)N1CCN(c2ccc(C#N)c(F)c2F)CC1 [compound 109]
8,20 nM,"O=C(c1cc([N+](=O)[O-])ccc1OCC(F)(F)C(F)(F)F)N1CCN(c2ccc(C(F)(F)F)cc2)CC1 [Example 100, [5-Nitro-2-(2,2,3,3,3-pentafluoro-propoxy)-phenyl]-[4-(4-trifluoromethyl-phenyl)-piperazin-1-yl]-methanone]"
9,20 nM,CC(C)COc1ccc(S(C)(=O)=O)cc1C(=O)N1CCN(c2ccc(C#N)c(F)c2F)CC1 [compound 128]
10,19 nM,CS(=O)(=O)c1ccc(OCCC(F)(F)F)c(C(=O)N2CCN(c3ccc(C(F)(F)F)c(F)c3)CC2)c1 [compound 116]
11,19 nM,CS(=O)(=O)c1ccc(OCC2CCC2)c(C(=O)N2CCN(c3cc(F)c(C#N)cc3F)CC2)c1 [compound 146]
12,19 nM,CC(C)COc1ccc(S(C)(=O)=O)cc1C(=O)N1CCN(c2c(F)cc(C#N)cc2F)CC1 [compound 164]
13,17 nM,CS(=O)(=O)c1ccc(OCC2CCC2)c(C(=O)N2CCN(c3ccc(C#N)cc3F)CC2)c1 [compound 138]
14,16 nM,"CS(=O)(=O)c1ccc(OC2CCCC2)c(C(=O)N2CCN(c3ccc(S(=O)(=O)C(F)(F)F)cc3)CC2)c1 [Example 329, (2-Cyclopentyloxy-5-methanesulfonyl-phenyl)-[4-(4-trifluoromethanesulfonyl-phenyl)-piperazin-1-yl]-methanone]"
15,16 nM,CS(=O)(=O)c1ccc(OC2CCCC2)c(C(=O)N2CCN(c3c(F)cc(C#N)cc3F)CC2)c1 [compound 167]
16,15 nM,CS(=O)(=O)c1ccc(OCC2CCC2)c(C(=O)N2CCN(c3ccc(C#N)c(F)c3F)CC2)c1 [compound 145]
17,12 nM,CC(C)COc1ccc(S(C)(=O)=O)cc1C(=O)N1CCN(c2cc(F)c(C#N)c(F)c2)CC1 [compound 169]
18,8 nM,"CC(C)(C)COc1ccc([N+](=O)[O-])cc1C(=O)N1CCN(c2ccc(C(F)(F)F)cc2)CC1 [Example 68, [2-(2,2-Dimethyl-propoxy)-5-nitro-phenyl]-[4-(4-trifluoromethyl-phenyl)-piperazin-1-yl]-methanone]"
19,8 nM,"O=C(c1cc([N+](=O)[O-])ccc1OC1CCCC1)N1CCN(c2ccc(C(F)(F)F)cc2)CC1 [Example 71, (2-Cyclopentyloxy-5-nitro-phenyl)-[4-(4-trifluoromethyl-phenyl)-piperazin-1-yl]-methanone]"
20,7 nM,"O=C(c1cc([N+](=O)[O-])ccc1OC1CC2CCC1C2)N1CCN(c2ccc(C(F)(F)F)cc2)CC1 (stereo not shown) [Example 88, [2-(Bicyclo[2.2.1]hept-2-yloxy)-5-nitro-phenyl]-[4-(4-trifluoromethyl-phenyl)-piperazin-1-yl]-methanone]"
